Laboratory results published in ChEMBL document CHEMBL3779840, “Discovery of 2-((3-Amino-4-methylphenyl)amino)-N-(2-methyl-5-(3-(trifluoromethyl)benzamido)phenyl)-4-(methylamino)pyrimidine-5-carboxamide (CHMFL-ABL-053) as a Potent, Selective, and Orally Available BCR-ABL/SRC/p38 Kinase Inhibitor for Chronic Myeloid Leukemia” (J Med Chem, 2016).

Legend:
[1] = Antiproliferative activity against mouse BA/F3 cells assessed as cell viability after 72 hrs by CellTiter-Glo or CCK-8 assay; assay type: cell-based, BaF3
K562 = assay: Antiproliferative activity against human K562 cells assessed as cell viability after 72 hrs by CellTiter-Glo or CCK-8 assay; assay type: functional; settings: K562, 72 h
[2] = Antiproliferative activity against human KU812 cells assessed as cell viability after 72 hrs by CellTiter-Glo or CCK-8 assay; assay type: functional; settings: KU812, 72 h
[3] = Antiproliferative activity against human U937 cells assessed as cell viability after 72 hrs by CellTiter-Glo or CCK-8 assay; assay type: functional; settings: U-937, 72 h
[4] = Antiproliferative activity against human MOLM14 cells assessed as cell viability after 72 hrs by CellTiter-Glo or CCK-8 assay; assay type: functional; settings: MOLM-14, 72 h
MV4-11 = assay: Antiproliferative activity against human MV4-11 cells assessed as cell viability after 72 hrs by CellTiter-Glo or CCK-8 assay; assay type: functional; settings: MV4-11, 72 h
[5] = Antiproliferative activity against human MEG01 cells assessed as cell viability after 72 hrs by CellTiter-Glo or CCK-8 assay; assay type: functional; settings: MEG-01, 72 h
HEL = assay: Antiproliferative activity against human HEL cells assessed as cell viability after 72 hrs by CellTiter-Glo or CCK-8 assay; assay type: functional
[6] = Antiproliferative activity against […] CHL cells assessed as cell viability after 72 hrs by CellTiter-Glo or CCK-8 assay; assay type: cell-based, Cricetulus griseus; settings: chinese hamster
[7] = molecular target: Epithelial discoidin domain-containing receptor 1 (Homo sapiens, UniProt Q08345); settings: BaF3
Description: Inhibition of TEL-DDR1 (unknown origin) expressed in mouse BA/F3 cells assessed as growth inhibition after 72 hrs by CellTiter-Glo or CCK-8 assay

[8] = molecular target: T1, Discoidin domain-containing receptor 2 (Homo sapiens) (UniProt Q16832); settings: BaF3
T1 sequence (whole entry): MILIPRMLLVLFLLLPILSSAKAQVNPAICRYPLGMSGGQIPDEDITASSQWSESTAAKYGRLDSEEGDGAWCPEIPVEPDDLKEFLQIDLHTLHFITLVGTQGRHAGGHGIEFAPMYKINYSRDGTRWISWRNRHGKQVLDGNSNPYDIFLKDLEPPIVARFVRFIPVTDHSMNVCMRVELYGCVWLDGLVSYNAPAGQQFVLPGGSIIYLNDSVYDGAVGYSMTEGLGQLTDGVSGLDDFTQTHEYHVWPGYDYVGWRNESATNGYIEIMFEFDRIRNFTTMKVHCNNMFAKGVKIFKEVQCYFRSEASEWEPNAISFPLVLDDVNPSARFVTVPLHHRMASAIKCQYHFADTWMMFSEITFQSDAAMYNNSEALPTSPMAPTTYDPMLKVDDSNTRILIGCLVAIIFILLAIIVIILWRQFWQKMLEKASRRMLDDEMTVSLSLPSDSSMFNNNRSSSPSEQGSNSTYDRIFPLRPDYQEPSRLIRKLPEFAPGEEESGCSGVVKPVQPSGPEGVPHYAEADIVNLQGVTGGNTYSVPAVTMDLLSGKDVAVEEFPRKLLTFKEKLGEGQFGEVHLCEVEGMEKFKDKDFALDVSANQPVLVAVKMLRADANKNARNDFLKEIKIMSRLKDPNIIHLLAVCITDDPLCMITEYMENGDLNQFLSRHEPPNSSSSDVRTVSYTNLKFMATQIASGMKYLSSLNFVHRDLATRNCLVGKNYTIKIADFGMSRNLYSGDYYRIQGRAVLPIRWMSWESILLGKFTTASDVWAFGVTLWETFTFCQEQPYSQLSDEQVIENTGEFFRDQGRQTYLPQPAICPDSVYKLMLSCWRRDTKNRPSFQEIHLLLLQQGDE
Description: Inhibition of TEL-DDR2 (unknown origin) expressed in mouse BA/F3 cells assessed as growth inhibition after 72 hrs by CellTiter-Glo or CCK-8 assay

[9] = molecular target: Tyrosine-protein kinase Blk (Homo sapiens) (UniProt P51451); settings: BaF3
Description: Inhibition of TEL-BLK (unknown origin) expressed in mouse BA/F3 cells assessed as growth inhibition after 72 hrs by CellTiter-Glo or CCK-8 assay

[10] = molecular target: Tyrosine-protein kinase HCK (Homo sapiens) (UniProt P08631); settings: BaF3
Description: Inhibition of TEL-HCK (unknown origin) expressed in mouse BA/F3 cells assessed as growth inhibition after 72 hrs by CellTiter-Glo or CCK-8 assay

BaF3 [11] = settings: Homo sapiens
Description: Inhibition of BCR/ABL p210-E255K mutant (unknown origin) expressed in mouse BA/F3 cells assessed as growth inhibition after 72 hrs by CellTiter-Glo or CCK-8 assay

BaF3 [12] = settings: Homo sapiens; remark: listed apart in the source
Description: Inhibition of BCR/ABL p210-F317I mutant (unknown origin) expressed in mouse BA/F3 cells assessed as growth inhibition after 72 hrs by CellTiter-Glo or CCK-8 assay

BaF3 [13] = settings: Homo sapiens; remark: listed apart in the source
Description: Inhibition of BCR/ABL p210-T315I mutant (unknown origin) expressed in mouse BA/F3 cells assessed as growth inhibition after 72 hrs by CellTiter-Glo or CCK-8 assay

[14] = molecular target: Proto-oncogene tyrosine-protein kinase Src (Homo sapiens, UniProt P12931); settings: BaF3
Description: Inhibition of TEL-SRC (unknown origin) expressed in mouse BA/F3 cells assessed as growth inhibition after 72 hrs by CellTiter-Glo or CCK-8 assay

[15] = molecular target: Tyrosine-protein kinase Lck (Homo sapiens) (UniProt P06239); settings: BaF3
Description: Inhibition of TEL-LCK (unknown origin) expressed in mouse BA/F3 cells assessed as growth inhibition after 72 hrs by CellTiter-Glo or CCK-8 assay

[16] = molecular target: Transcription factor ETV6/Tyrosine-protein kinase ABL1 (Homo sapiens) (UniProt P00519+P41212); settings: BaF3
Description: Inhibition of Tel-ABL (unknown origin) expressed in mouse BA/F3 cells assessed as cell growth inhibition after 72 hrs by CellTiter-Glo or CCK-8 assay

[17] = molecular target: Bcr/Abl fusion protein (Homo sapiens) (UniProt P00519+P11274); settings: BaF3
Chain of Bcr/Abl fusion protein (Homo sapiens) (P00519 whole entry, looked up, the tested form may be a part): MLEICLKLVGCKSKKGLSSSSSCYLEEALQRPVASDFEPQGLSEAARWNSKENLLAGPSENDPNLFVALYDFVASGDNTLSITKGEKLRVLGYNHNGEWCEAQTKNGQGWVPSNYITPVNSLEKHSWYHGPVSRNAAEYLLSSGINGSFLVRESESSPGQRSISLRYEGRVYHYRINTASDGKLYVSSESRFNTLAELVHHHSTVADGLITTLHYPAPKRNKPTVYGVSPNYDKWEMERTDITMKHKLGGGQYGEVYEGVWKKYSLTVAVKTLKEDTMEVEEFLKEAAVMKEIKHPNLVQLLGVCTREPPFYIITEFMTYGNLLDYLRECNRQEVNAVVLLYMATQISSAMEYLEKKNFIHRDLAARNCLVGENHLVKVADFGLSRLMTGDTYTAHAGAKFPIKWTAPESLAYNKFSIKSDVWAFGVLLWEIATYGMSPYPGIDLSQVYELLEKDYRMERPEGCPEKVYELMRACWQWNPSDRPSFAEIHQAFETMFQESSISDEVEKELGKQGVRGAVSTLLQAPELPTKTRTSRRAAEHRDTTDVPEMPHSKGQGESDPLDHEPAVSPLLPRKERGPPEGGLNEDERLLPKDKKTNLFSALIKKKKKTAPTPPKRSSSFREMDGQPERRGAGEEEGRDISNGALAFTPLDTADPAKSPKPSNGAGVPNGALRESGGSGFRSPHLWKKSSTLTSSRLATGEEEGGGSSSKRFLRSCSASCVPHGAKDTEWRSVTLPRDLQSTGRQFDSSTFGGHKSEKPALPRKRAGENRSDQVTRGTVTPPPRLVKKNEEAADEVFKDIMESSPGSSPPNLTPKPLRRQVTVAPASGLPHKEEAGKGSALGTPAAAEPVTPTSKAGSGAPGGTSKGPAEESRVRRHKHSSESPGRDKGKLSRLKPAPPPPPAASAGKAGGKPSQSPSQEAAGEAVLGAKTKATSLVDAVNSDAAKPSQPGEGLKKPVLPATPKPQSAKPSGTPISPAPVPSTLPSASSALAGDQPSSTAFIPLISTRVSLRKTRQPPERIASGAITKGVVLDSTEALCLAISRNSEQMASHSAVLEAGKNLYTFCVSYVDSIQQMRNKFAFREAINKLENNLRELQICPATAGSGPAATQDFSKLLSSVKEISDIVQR
Chain of Bcr/Abl fusion protein (Homo sapiens) (P11274 whole entry, looked up, the tested form may be a part): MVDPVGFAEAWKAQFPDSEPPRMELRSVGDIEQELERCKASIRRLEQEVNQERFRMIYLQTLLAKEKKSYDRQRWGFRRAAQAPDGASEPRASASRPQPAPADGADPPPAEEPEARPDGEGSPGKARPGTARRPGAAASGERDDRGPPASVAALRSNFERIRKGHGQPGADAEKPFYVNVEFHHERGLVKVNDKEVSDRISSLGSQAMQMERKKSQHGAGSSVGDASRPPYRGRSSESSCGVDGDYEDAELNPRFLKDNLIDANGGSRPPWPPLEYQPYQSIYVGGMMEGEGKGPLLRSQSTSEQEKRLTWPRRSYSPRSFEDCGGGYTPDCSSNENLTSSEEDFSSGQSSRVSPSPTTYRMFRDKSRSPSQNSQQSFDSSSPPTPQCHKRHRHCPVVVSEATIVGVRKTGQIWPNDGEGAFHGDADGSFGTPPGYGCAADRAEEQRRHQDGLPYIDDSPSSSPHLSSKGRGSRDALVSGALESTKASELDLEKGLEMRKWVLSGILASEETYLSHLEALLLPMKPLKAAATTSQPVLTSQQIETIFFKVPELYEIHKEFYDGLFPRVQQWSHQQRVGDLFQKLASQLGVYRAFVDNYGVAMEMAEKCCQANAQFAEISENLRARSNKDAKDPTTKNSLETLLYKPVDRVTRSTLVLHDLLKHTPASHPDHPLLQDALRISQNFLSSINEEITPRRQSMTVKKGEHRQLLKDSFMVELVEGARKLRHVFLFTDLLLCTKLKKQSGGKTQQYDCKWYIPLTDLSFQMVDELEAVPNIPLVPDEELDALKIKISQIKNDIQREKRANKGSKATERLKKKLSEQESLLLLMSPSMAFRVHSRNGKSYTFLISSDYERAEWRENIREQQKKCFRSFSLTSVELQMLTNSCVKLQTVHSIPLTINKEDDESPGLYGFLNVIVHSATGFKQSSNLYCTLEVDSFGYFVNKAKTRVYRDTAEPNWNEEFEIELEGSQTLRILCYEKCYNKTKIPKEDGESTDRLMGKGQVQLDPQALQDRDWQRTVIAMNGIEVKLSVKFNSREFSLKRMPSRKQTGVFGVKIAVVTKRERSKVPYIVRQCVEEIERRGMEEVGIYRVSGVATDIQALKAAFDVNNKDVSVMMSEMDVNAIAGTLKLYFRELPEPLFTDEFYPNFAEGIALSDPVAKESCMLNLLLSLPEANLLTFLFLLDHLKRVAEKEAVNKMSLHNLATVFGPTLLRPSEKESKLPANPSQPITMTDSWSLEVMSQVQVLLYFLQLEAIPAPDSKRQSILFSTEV
Description: Inhibition of BCR/ABL p210 (unknown origin) expressed in mouse BA/F3 cells assessed as growth inhibition after 72 hrs by CellTiter-Glo or CCK-8 assay

Chain of Transcription factor ETV6/Tyrosine-protein kinase ABL1 (Homo sapiens) (P00519 whole entry, looked up, the tested form may be a part): as the sequence (P00519 whole entry, looked up, the tested form may be a part) above
Chain of Transcription factor ETV6/Tyrosine-protein kinase ABL1 (Homo sapiens) (P41212 whole entry, looked up, the tested form may be a part): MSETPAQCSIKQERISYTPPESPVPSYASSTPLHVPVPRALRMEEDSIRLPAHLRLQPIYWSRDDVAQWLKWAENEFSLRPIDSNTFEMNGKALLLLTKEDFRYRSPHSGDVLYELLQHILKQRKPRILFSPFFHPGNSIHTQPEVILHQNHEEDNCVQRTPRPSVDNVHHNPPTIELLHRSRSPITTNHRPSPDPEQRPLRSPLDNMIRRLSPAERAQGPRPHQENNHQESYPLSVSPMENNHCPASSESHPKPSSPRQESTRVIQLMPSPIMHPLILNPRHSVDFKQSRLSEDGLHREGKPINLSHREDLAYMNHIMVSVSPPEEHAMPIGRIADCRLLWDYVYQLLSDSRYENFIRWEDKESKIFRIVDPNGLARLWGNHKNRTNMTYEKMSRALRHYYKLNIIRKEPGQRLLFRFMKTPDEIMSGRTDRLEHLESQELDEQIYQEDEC
Chain of Tyrosine-protein kinase HCK (Homo sapiens) (P08631 2-526 limits assumed): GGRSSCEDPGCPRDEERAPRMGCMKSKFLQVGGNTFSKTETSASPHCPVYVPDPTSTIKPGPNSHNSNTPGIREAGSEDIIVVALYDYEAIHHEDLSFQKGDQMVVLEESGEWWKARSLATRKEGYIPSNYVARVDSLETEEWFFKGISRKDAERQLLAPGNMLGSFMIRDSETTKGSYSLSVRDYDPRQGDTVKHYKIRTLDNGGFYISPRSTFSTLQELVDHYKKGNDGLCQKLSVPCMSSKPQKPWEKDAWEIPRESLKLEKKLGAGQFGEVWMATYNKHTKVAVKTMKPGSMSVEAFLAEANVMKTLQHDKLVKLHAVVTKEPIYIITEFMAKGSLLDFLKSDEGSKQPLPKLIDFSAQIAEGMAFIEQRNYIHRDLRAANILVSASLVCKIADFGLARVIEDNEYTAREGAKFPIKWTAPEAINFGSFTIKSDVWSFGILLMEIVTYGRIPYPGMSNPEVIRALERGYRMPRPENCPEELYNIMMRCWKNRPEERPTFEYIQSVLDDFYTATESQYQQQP
Chain of Tyrosine-protein kinase Blk (Homo sapiens) (P51451 2-505 limits assumed): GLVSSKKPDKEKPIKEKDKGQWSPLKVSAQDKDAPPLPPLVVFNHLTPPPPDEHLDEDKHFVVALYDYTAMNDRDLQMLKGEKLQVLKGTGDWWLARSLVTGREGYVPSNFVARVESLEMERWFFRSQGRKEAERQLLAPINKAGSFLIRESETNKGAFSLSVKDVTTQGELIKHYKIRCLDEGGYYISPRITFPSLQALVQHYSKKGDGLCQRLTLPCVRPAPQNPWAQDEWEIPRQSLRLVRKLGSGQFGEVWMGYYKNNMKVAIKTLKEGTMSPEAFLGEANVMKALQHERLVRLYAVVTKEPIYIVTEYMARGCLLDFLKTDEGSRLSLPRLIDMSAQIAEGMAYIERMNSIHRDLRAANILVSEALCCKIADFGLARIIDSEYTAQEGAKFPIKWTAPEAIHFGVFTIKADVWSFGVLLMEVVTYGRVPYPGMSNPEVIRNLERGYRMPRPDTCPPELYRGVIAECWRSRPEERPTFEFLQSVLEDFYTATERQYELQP
Chain of Tyrosine-protein kinase Lck (Homo sapiens) (P06239 2-509 limits assumed): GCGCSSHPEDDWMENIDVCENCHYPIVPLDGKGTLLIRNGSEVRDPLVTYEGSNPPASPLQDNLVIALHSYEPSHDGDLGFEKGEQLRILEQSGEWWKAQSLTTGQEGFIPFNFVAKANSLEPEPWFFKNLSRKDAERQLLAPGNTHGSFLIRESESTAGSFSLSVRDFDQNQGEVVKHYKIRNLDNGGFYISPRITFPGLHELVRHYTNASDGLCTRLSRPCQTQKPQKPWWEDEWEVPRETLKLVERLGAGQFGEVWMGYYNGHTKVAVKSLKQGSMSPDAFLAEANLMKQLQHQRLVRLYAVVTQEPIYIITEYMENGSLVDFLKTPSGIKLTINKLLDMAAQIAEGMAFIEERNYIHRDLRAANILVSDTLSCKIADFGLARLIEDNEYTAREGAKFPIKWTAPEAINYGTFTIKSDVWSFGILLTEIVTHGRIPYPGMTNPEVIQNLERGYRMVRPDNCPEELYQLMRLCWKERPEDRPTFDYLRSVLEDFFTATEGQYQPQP
Chain of Proto-oncogene tyrosine-protein kinase Src (P12931 2-536 limits assumed): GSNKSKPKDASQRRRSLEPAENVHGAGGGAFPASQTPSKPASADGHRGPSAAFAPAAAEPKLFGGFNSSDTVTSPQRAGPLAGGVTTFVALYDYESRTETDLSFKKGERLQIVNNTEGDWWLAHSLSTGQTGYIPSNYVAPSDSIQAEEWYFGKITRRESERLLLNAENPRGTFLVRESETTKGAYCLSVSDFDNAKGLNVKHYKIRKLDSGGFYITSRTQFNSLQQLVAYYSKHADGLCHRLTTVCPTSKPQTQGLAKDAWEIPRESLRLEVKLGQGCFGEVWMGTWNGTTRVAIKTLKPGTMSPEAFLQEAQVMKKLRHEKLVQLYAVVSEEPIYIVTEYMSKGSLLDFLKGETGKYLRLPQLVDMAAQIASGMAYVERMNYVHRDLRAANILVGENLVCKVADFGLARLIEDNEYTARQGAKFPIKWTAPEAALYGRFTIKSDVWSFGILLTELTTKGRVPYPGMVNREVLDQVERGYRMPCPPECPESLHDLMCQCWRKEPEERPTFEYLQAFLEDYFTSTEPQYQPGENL

Cc1nc(Nc2ncc(C(=O)Nc3c(C)cccc3Cl)s2)cc(N2CCN(CCO)CC2)n1 [DASATINIB]
GI50 at 72 h [1]: > 10000 nM
GI50 (K562): < 0.3 nM
GI50 [2]: < 0.3 nM
GI50 [3]: > 10000 nM
GI50 [4]: 2300 nM
GI50 (MV4-11): 3600 nM
GI50 [5]: < 0.3 nM
GI50 (HEL): 5300 nM
GI50 at 72 h [6]: 270 nM
GI50 [7]: 3000 nM
GI50 [8]: 3000 nM
GI50 [9]: 5 nM
GI50 [10]: 39 nM
GI50 (BaF3 [11]): 17 nM
GI50 (BaF3 [12]): 10 nM
GI50 (BaF3 [13]): 9940 nM

Cc1cn(-c2cc(NC(=O)c3ccc(C)c(Nc4nccc(-c5cccnc5)n4)c3)cc(C(F)(F)F)c2)cn1 [NILOTINIB]
GI50 at 72 h [1]: 2100 nM
GI50 (K562): 2 nM
GI50 [2]: 1 nM
GI50 [3]: > 10000 nM
GI50 [4]: > 10000 nM
GI50 (MV4-11): > 10000 nM
GI50 [5]: 16 nM
GI50 (HEL): 3900 nM
GI50 at 72 h [6]: 4200 nM
GI50 [14]: 470 nM
GI50 [8]: 1400 nM
GI50 [15]: 870 nM
GI50 [9]: 1300 nM
GI50 [10]: 4100 nM
GI50 (BaF3 [11]): 21 nM
GI50 (BaF3 [12]): 54.6 nM
GI50 (BaF3 [13]): > 10000 nM

Cc1ccc(NC(=O)c2ccc(CN3CCN(C)CC3)cc2)cc1Nc1nccc(-c2cccnc2)n1 [IMATINIB]
GI50 at 72 h [1]: 6700 nM
GI50 (K562): 140 nM
GI50 [2]: 160 nM
GI50 [3]: > 10000 nM
GI50 [4]: > 10000 nM
GI50 (MV4-11): > 10000 nM
GI50 [5]: 240 nM
GI50 (HEL): 5300 nM
GI50 at 72 h [6]: > 10000 nM
GI50 [8]: 7700 nM
GI50 [9]: 4100 nM
GI50 [10]: 9700 nM
GI50 (BaF3 [11]): 1930 nM
GI50 (BaF3 [12]): 855 nM
GI50 (BaF3 [13]): > 10000 nM

CNc1nc(Nc2ccc(C)c([N+](=O)[O-])c2)ncc1C(=O)Nc1cc(NC(=O)c2ccc(OC)c(OC)c2)ccc1C
GI50 at 72 h [1]: 7300 nM
GI50 (K562): 680 nM
GI50 [16]: 1400 nM
GI50 [17]: 1600 nM

Cc1ccc(Nc2ncc3c(n2)N(C)C(=O)N(c2cc(NC(=O)c4cccc(C(F)(F)F)c4)ccc2C)C3)cc1C
GI50 at 72 h [1]: 3760 nM
GI50 (K562): 17 nM
GI50 [16]: 61 nM
GI50 [17]: 66 nM

CNc1nc(Nc2ccc(C)c([N+](=O)[O-])c2)ncc1C(=O)Nc1cc(NC(=O)c2cccc(OC)c2)ccc1C
GI50 at 72 h [1]: 6310 nM
GI50 (K562): 480 nM
GI50 [16]: 983 nM
GI50 [17]: 1100 nM

Cc1cccc(C(=O)Nc2ccc(C)c(N3Cc4cnc(Nc5ccc(C)c(N)c5)nc4N(C)C3=O)c2)c1
GI50 at 72 h [1]: > 10000 nM
GI50 (K562): 68.8 nM
GI50 [16]: 6 nM
GI50 [17]: 14 nM

CNc1nc(Nc2ccc(C)c(N)c2)ncc1C(=O)Nc1cc(NC(=O)c2ccc(OC)cc2)ccc1C
GI50 at 72 h [1]: > 10000 nM
GI50 (K562): 610 nM
GI50 [16]: 1300 nM
GI50 [17]: 2100 nM
